These results are taken from US20240293514A1, “PHARMACEUTICAL COMPOSITIONS COMPRISING GLP-1R AGONISTS” (4MOVING BIOTECH, priority 2021, published 2024).

Common to all, as to format: in vivo, SD rats
In test [1] the test system is MIA-induced model of osteoarthritis and inflammatory pain in rats. The test can be described thus: Electronic von Frey test, various GLP-1R agonists, MIA-induced model (Example 7, cycle 1). The procedure:
(§1) Seven groups comprising 8 SD rats per group were allocated for this study performed in 2 cycles (4 SD rats/cycle). Chemically-induced OA disease was performed on six out of seven groups by injecting intra-articularly (IA) in the right knee joint 3 mg of MIA in 30 μL on day 1. The control group (sham/vehicle control) received 30 μL of saline IA in the right knee joint. […] All groups 31M-37M received 1 IA injection of either saline (group 31M) or MIA (groups 32M to 37M) on day 1 and the treatment injection on day 3. During the study, body weight measurements (twice a week) and von Frey tests using electronic von Frey apparatus (on day 2, 7, for C1) and von Frey filaments (on day 10, 18, 24 and 30 for Cl, and on day 2, 7, 10, 18, 24 and 30 for C2) were performed. Group allocation was performed on day 2, based on von Frey results. Knee harvesting was performed for optional analyses at study termination at day 32.
(§2) A solution comprising dulaglutide is prepared from the product Trulicity®. Trulicity® is a commercial dulaglutide drug. Trulicity® is supplied as a “ready to use” solution at 4.5 mg/0.50 mL. It will be diluted in the appropriate volume of vehicle (NaCl 0.9%) for injection into knee joint of 270 μg in 30 μL per rat for group 33M.
(§3) Bydureon® is supplied as a “ready to use” solution at 2 mg/0.65 mL. It will be diluted in the appropriate volume of vehicle (NaCl 0.9%) for injection into knee joint of 92.31 μg in 30 μL per rat for group 34M.
(§4) Bydureon Bcise® is supplied as a “ready to use” solution at 2.35 mg/mL. It will be diluted in the appropriate volume of vehicle (NaCl 0.9%) for injection into knee joint of 70.6 μg in 30 μL per rat for group 35M.
(§5) A solution comprising lixisenatide is prepared from the product Adlyxin®. Adlyxin® is a commercial lixisenatide drug. Adlyxin® is supplied as a “ready to use” solution at 100 μg/mL. It will be diluted in the appropriate volume of vehicle (NaCl 0.9%) for injection into knee joint of 3 μg in 30 μL per rat for group 36M.
(§6) It will be diluted in the appropriate volume of vehicle (NaCl 0.9%) for injection into knee joint of 180 μg in 30 μL per rat for group 37M.
(§7) 56 male SD rats aged 9 weeks were anesthetized via a chamber induction technique using inhalation anesthesia (Isoflurane at 5%). During the procedure, the animal was maintained under Isoflurane at a level between 1.5 and 3% with an air flow rate of 1-2 liters/minute. After induction of anesthesia, the right hind limb skin surface was clipped free of hair using electric animal clippers. After shaving, the area surrounding the knee joint was wiped with alcohol. A volume of 30 μL containing 3 mg MIA was injected intra-articularly (IA) in the knee joint through the patellar tendon. A 29-gauge, 0.5-inch needle that fitted with cannulation tubing was used such that only 3 to 4 mm of the needle was allowed to puncture the joint. After injection, the knee was massaged to ensure even distribution of the solution. Animals were injected once on day 1 (groups 32M, 33M, 34M, 35M, 36M, 37M). For group 31M (sham control), 30 μL of injectable saline was injected into knee joint.
(§8) Von Frey test in the rats following MIA injection was conducted according to 4P-Pharma's proceedings “Mechanical Neuropathic Pain Evaluation (electronic Von Frey)” and to 4P-Pharma's proceedings “Mechanical Neuropathic Pain Evaluation (Von Frey)”. Rats were placed individually in the designated transparent Plexiglas chambers and allowed to acclimate for 10-15 min. Withdrawal response to mechanical stimulation was determined using electronic von Frey apparatus (BIO-EVF5, Bioseb) with a 0.5 mm diameter tip placed on the stimulator handle applied from underneath the cage through openings (12×12 mm) in the plastic mesh floor or with von Frey filaments (Bio-VF-M, Bioseb). The withdrawal response in gram-force for each rat was calculated from three trials for von Frey apparatus and once with von Frey filaments.

Test [2] shares this test system. The test can be described thus: Von Frey filaments test, various GLP-1R agonists, MIA-induced model (Example 7). The procedure: as §1, §2, §3, §4, §5, §6, §7, §8
Test [3] shares this test system. The test can be described thus: Electronic and equivalent von Frey scores normalized to vehicle group (Example 7). Here is the method: Allodynia in rats following OA induction on day 1 was evaluated on day 2 and on day 7 using both Electronic (for cycle 1) and von Frey filaments (for cycle 2). Both tests are reliable and valid for the assessment of the mechanical sensitivity in the ipsilateral hind paw of rats. Additionally, von Frey filament score can be transposed approximately to an equivalent electronic von Frey score (theorical pressure in grams/mm^2). To assure the obtained results, we performed a test using both von Frey filaments and Electronic von Frey apparatus on three rats from three different groups (31M, 32M and 37M).
Equivalent electronic von Frey score was calculated using the “Aesthesio Precision Tactile sensory data chart” from the results obtained with von Frey filaments. Thus, to have a more representative vision of the results obtained in previous experiments using the electronic von Frey apparatus, we combine both the electronic von Frey scores obtained from Cycle 1 (Day 2 and 7) and the equivalent score calculated from the results obtained with the von Frey filaments for Cycle 1 (from day 10) and Cycle 2.

The mark [4] stands for this setting: 3 μg IA once on day 3, D2 (baseline before treatment).
Setting [5] is: 180 μg IA once on day 3, D2 (baseline before treatment).
Setting [6] is: 270 μg IA once on day 3, D2 (baseline before treatment).

Marks after values point to notes of the source that are not given here.

Consider lixisenatide, for which the “right paw withdrawal threshold, Electronic von Frey (mean)” value is on record as 33.55 grams in test [1] (setting [4]) and 55.15 grams in test [1] (3 μg IA once on day 3, D7). Besides, the “right paw withdrawal threshold, von Frey filaments (mean)” value in test [2] (setting [4]) was 1.30^$$$ grams; in test [2] (3 μg IA once on day 3, D7), 5.00** grams; in test [2] (3 μg IA once on day 3, D10) it was 7.63*** grams; in test [2] (3 μg IA once on day 3, D18) it was 7.75*** grams; in test [2] (3 μg IA once on day 3, D24), 7.25*** grams; in test [2] (3 μg IA once on day 3, D30), 8.88*** grams. The “von Frey score normalized to vehicle group (31M)” value in test [3] (3 μg IA (group 36M), raised to and kept) is 60%.

liraglutide: the “right paw withdrawal threshold, Electronic von Frey (mean)” value in test [1] (setting [5]) stood at 32.88 grams; in test [1] (180 μg IA once on day 3, D7), 63.60 grams. The “right paw withdrawal threshold, von Frey filaments (mean)” value in test [2] (setting [5]) is on record as 1.60^$$$ grams; in test [2] (180 μg IA once on day 3, D7) it was 8.00*** grams; in test [2] (180 μg IA once on day 3, D10), 9.63*** grams; in test [2] (180 μg IA once on day 3, D18), 11.63*** grams; in test [2] (180 μg IA once on day 3, D24), 10.25*** grams; in test [2] (180 μg IA once on day 3, D30), 9.00*** grams. Besides, in test [3] (180 μg IA (group 37M), at day 10, level maintained for 20 days), the “von Frey score normalized to vehicle group (31M)” value was determined as 70%.

As for dulaglutide, the “right paw withdrawal threshold, Electronic von Frey (mean)” value in test [1] (setting [6]) amounted to 30.03 grams; in test [1] (270 μg IA once on day 3, D7), 50.98 grams. For the same substance, the “right paw withdrawal threshold, von Frey filaments (mean)” value in test [2] (setting [6]) is on record as 2.28^$$$ grams; in test [2] (270 μg IA once on day 3, D7) it was 2.85 grams; in test [2] (270 μg IA once on day 3, D10), 4.75*** grams; in test [2] (270 μg IA once on day 3, D18) it was 6.50*** grams; in test [2] (270 μg IA once on day 3, D24), 7.00*** grams; in test [2] (270 μg IA once on day 3, D30), 8.25*** grams.
